Reference: ChEMBL document CHEMBL1133171, “Selective plasma hydrolysis of glucocorticoid gamma-lactones and cyclic carbonates by the enzyme paraoxonase: an ideal plasma inactivation mechanism” (J Med Chem, 2000)

Key:
Glucocorticoid receptor [1] = target: T1, Glucocorticoid receptor (Homo sapiens, UniProt P04150); experiment: (§1) Inhibition of [3H]dexamethasone binding to human Glucocorticoid Receptor
T1 sequence (P04150 whole entry): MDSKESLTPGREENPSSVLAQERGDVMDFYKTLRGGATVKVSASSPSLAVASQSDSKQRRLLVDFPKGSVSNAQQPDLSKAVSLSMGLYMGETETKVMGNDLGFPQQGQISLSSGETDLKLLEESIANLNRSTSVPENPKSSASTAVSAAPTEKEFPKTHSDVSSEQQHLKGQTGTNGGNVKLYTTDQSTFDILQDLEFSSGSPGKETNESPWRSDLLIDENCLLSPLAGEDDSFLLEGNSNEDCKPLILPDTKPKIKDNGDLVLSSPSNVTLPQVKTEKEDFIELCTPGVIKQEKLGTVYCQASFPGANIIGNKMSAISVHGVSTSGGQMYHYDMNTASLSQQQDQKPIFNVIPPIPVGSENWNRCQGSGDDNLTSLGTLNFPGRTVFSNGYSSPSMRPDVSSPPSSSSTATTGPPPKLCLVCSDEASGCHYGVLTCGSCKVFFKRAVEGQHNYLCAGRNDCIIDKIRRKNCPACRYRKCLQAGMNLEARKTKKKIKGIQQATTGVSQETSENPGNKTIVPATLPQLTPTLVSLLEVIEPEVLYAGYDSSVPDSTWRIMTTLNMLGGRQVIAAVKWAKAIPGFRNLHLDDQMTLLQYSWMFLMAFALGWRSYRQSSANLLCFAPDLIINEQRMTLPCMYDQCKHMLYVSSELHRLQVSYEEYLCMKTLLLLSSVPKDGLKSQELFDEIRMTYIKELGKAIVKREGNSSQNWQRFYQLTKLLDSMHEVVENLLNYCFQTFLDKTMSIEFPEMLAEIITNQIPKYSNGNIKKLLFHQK

Glucocorticoid receptor [2] = target: T1, Glucocorticoid receptor; experiment: as §1; remark: listed apart in the source

IC50 (Glucocorticoid receptor [1]): 194 nM
IC50 (Glucocorticoid receptor [2]): 827 nM
Structure (SMILES): CC1(C)O[C@@H]2CC3C4C[C@H](F)C5=CC(=O)C=C[C@]5(C)[C@@]4(F)[C@@H](O)C[C@]3(C)[C@]2(C(=O)CSC(CCO)C(=O)O)O1 (some centres not stated)
